Experimental data as given in patent publication US7414066B2, “Amide compounds and medications containing the same technical field” (Kowa Company Ltd., priority 1999, dated 2008).

Legend:
[1] = target: T1, ACAT (enzyme solution derived from the small intestine of a rabbit); assay: ACAT inhibitory activity, enzyme solution from rabbit small intestine; type: biochemical; conditions: B‡: the small intestine
T1 construct: An enzyme solution derived from the small intestine was prepared from the small intestine of a rabbit that had eaten a normal food
Method: (§1) A microsome was prepared from the breast aorta of a rabbit which had been fed with 1% cholesterol food for 8 weeks in a usual manner, and suspended in a 0.15 M phosphate buffer solution (pH 7.4) to form an enzyme solution. An enzyme solution derived from the small intestine was prepared from the small intestine of a rabbit that had eaten a normal food.
(§2) To this solution were added 10 μl of the enzyme solution, and the mixture was reacted at 37° C. for 5 minutes (for 3 minutes in the case of the small intestine). Then, 3 ml of a chloroform/methanol (2/1) mixture and 0.5 ml of 0.04 N hydrochloric acid were added thereto to stop the reaction. The lipid was then extracted. The solvent layer was concentrated to dryness, and dissolved in hexane. The solution was spotted on a TLC plate(supplied by Merck Co.). The elution was conducted with a hexane:ether:acetic acid (75:25:1) mixture.
(§3) The radioactivity of the resulting cholesterol ester fraction was measured using BAS 2000 (supplied by Fuji Photo Film Co., Ltd.). An IC50 value was obtained from the calculation in contrast with a control containing only DMSO.

J774 cells = assay: ACAT inhibitory activity (anti-foamation activity) in J774 cells; type: cell-based; conditions: for IC50: Mus musculus, J774 cells, 25-OH cholesterol 10 μg/ml, 18 hours, read-out: Enzyme (J774) IC50; for IC50 (HepG2)/IC50 (J774): ratio HepG2 / J774
Method: (§4) J774 cells or HepG2 cells were spread on a 24-well plate. The cells were incubated in a 5% CO2 incubator at 37° C. for 24 hours using DMEM in the case of the J774 cells and a MEM culture solution in the case of the HepG2 cells (both containing 10% fetal calf serum).
(§5) The medium was removed, and the residue was washed twice with PBS, then extracted with 1.5 ml of a hexane:isopropanol (3:2) mixture, and concentrated to dryness. The extract was dissolved in 0.2 ml of isopropanol containing 10% Triton X-100. Total cholesterol (TC) and free cholesterol (FC) were measured using Cholesterol E Test Wako (supplied by Wako Pure Chemical Industries, Ltd.) and Free Cholesterol E Test Wako (supplied by Wako Pure Chemical Industries, Ltd.).
(§6) The cell extract residue was solubilized in 0.25 ml of 2N NaOH at 37° C. for 30 minutes, and the protein amount was measured using BCA Protein Assay Reagent (Pierce).
(§7) The amount of cholesterol based on the protein was calculated from the difference between TC and FC, and an IC50 value was obtained from the calculation in contrast with the control.

HepG2 cells = assay: ACAT inhibitory activity (anti-foamation activity) in HepG2 cells; type: cell-based; conditions: Homo sapiens, 25-OH cholesterol 10 μg/ml, 18 hours, read-out: Enzyme (HepG2) IC50
Method: as §4, §5, §6, §7

[2] = target: ACAT (microsome from the breast aorta of a rabbit) (Oryctolagus cuniculus, UniProt G1SUQ0); assay: ACAT inhibitory activity, microsome from rabbit breast aorta (blood vessel wall enzyme); type: biochemical; conditions: microsome from breast aorta of cholesterol-fed rabbit
Method: as §1, §2, §3

ACAT (microsome from the breast aorta of a rabbit), sequence (G1SUQ0 entry or part of it): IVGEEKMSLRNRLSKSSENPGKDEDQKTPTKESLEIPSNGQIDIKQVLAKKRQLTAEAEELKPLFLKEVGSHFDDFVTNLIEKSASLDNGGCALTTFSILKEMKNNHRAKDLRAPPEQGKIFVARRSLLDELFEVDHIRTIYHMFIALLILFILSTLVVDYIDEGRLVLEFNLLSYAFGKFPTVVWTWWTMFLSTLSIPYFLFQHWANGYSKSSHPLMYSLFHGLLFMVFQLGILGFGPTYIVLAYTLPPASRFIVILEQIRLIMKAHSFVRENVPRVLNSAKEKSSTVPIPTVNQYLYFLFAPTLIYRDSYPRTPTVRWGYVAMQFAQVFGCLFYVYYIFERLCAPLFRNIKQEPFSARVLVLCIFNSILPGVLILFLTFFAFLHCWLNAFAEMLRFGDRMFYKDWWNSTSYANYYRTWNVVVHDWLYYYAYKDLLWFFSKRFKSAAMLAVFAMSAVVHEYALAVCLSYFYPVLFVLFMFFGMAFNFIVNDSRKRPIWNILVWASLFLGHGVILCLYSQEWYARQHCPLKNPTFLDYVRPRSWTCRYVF

| SMILES | IC50 [1] | IC50 (J774 cells) | IC50 (HepG2)/IC50 (J774) (J774 cells) | IC50 (HepG2 cells) | melting point | IC50 [2] |
| --- | --- | --- | --- | --- | --- | --- |
| CCCCCCCN(CCCCCSc1nc(-c2ccccc2)c(-c2ccccc2)[nH]1)c1nc2ccccc2o1 [Control 4, [5-(4,5-diphenyl-1H-imidazol-2-ylthio)pentyl]-N-heptyl-2-benzoxazolamie, reference compound] | 37 nM | 120 nM | – | – | – | – |
| Cc1cc(SC(C)C)c(NC(=O)CCCCCCSc2nc3cccc(C(F)(F)F)c3o2)c(SC(C)C)n1 [Compound No. 1292, 7-(7-trifluoromethylbenzoxazol-2-ylthio)-N-[2,4-bis(isopropylthio)-6-methyl-3-pyridyl]heptanamide] | – | 2.7 nM | 11.1 | 30 nM | 76 to 78 °C | – |
| CC(C)c1cccc(C(C)C)c1NC(=O)CCCCCSc1nc2ccccc2o1 [Control 5, 6-(benzoxazol-2-ylthio)-N-(2,6-diisopropylphenyl)hexanamide, reference compound] | 65 nM | 1900 nM | – | – | – | – |
| CC(C)c1cccc(C(C)C)c1NC(=O)C(C)(C)CCCOc1ccc2c(c1)C=C(c1nccn1C)C(CCc1ccc(F)cc1)O2 (centres unmarked) [Control 1, 5-[2-(2-(4-fluorophenyl)ethyl)-3-(1-methyl-1H-imidazol-2-yl)-2H-1-benzopyran-6-yl]oxy-2,2-dimethyl-N-(2,6-diisopropylphenyl)pentanamide, reference compound] | 870 nM | 560 nM | – | – | – | – |
| Cc1cc(SC(C)C)c(NC(=O)CCCCCCCCSc2nc3cccc(C(F)(F)F)c3o2)c(SC(C)C)n1 [Compound No. 1294, 9-(7-trifluoromethylbenzoxazol-2-ylthio)-N-[2,4-bis(isopropylthio)-6-methyl-3-pyridyl]nonanamide] | – | 4.2 nM | 0.6 | 2.4 nM | 97 to 98 °C | – |
| CCCCCCCCCN(CC(C)(C)C)C(=O)N[C@H]1CCCC[C@@H]1OC(=O)CCNC(=O)C1OC(C)(C)OCC1(C)C (stereo partly drawn) [Control 3, N-(2,2,5,5-tetramethyl-1,3-dioxan-4-ylcarbonyl)-β-alanine 2 (S)-[N′-(2,2-dimethylpropyl)-N′-nonylureido]-1(S)-cyclohexyl ester] | 56 nM | 320 nM | – | – | – | 34 nM |
